Results published in ChEMBL document CHEMBL5537115, “New broad-spectrum and potent antibacterial agents with dual-targeting mechanism: Promoting FtsZ polymerization and disrupting bacterial membranes” (Eur J Med Chem, 2024).
Converted amounts (≈) assume the structure as drawn.

Legend:
Format in all cases: functional
[1] = test system: Enterococcus faecium; test: Antibacterial activity against vancomycin-resistant Enterococcus faecium ATCC51559 assessed as bacterial growth inhibition incubated for 20 hrs by CLSI based broth microdilution method
[2] = test system: Enterococcus faecium; test: Antibacterial activity against vancomycin-susceptible Enterococcus faecium ATCC19434 assessed as bacterial growth inhibition incubated for 20 hrs by CLSI based broth microdilution method
[3] = test system: Staphylococcus aureus; test: Antibacterial activity against Staphylococcus aureus clinical isolate assessed as bacterial growth inhibition incubated for 20 hrs by CLSI based broth microdilution method
[4] = test system: Escherichia coli; test: Antibacterial activity against penicillin-susceptible Escherichia coli ATCC25922 assessed as bacterial growth inhibition incubated for 20 hrs by CLSI based broth microdilution method
[5] = test system: Streptococcus pyogenes; test: Antibacterial activity against erythromycin-resistant Streptococcus pyogenes 2 clinical isolate assessed as bacterial growth inhibition incubated for 20 hrs by CLSI based broth microdilution method
[6] = test system: Staphylococcus aureus; test: Antibacterial activity against methicillin-resistant Staphylococcus aureus ATCC43300 assessed as bacterial growth inhibition incubated for 20 hrs by CLSI based broth microdilution method
[7] = test system: Staphylococcus epidermidis; test: Antibacterial activity against penicillin-resistant Staphylococcus epidermidis clinical isolate assessed as bacterial growth inhibition incubated for 20 hrs by CLSI based broth microdilution method
[8] = test system: Escherichia coli; test: Antibacterial activity against wild-type Escherichia coli BW25113 assessed as bacterial growth inhibition incubated for 20 hrs by CLSI based broth microdilution method
[9] = test system: Streptococcus pyogenes; test: Antibacterial activity against erythromycin-susceptible Streptococcus pyogenes 1 assessed as bacterial growth inhibition incubated for 20 hrs by CLSI based broth microdilution method
[10] = test system: Klebsiella pneumoniae; test: Antibacterial activity against Klebsiella pneumoniae ATCC BAA-1902 assessed as bacterial growth inhibition incubated for 20 hrs by CLSI based broth microdilution method
[11] = test system: Enterococcus faecalis; test: Antibacterial activity against vancomycin-resistant Enterococcus faecalis ATCC51299 assessed as bacterial growth inhibition incubated for 20 hrs by CLSI based broth microdilution method
[12] = test system: Acinetobacter baumannii; test: Antibacterial activity against Acinetobacter baumannii ATCC19606 assessed as bacterial growth inhibition incubated for 20 hrs by CLSI based broth microdilution method
[13] = test system: Bacillus pumilus; test: Antibacterial activity against penicillin-susceptible Bacillus pumilus CMCC63202 assessed as bacterial growth inhibition incubated for 20 hrs by CLSI based broth microdilution method
[14] = test system: Staphylococcus aureus; test: Antibacterial activity against erythromycin-susceptible Staphylococcus aureus ATCC25923 assessed as bacterial growth inhibition incubated for 20 hrs by CLSI based broth microdilution method
[15] = test system: Staphylococcus aureus; test: Antibacterial activity against penicillin-resistant Staphylococcus aureus ATCC31007 assessed as bacterial growth inhibition incubated for 20 hrs by CLSI based broth microdilution method
[16] = test system: Bacillus subtilis; test: Antibacterial activity against penicillin-susceptible Bacillus subtilis ATCC9372 assessed as bacterial growth inhibition incubated for 20 hrs by CLSI based broth microdilution method
[17] = test system: Enterococcus faecalis; test: Antibacterial activity against vancomycin-susceptible Enterococcus faecalis ATCC29212 assessed as bacterial growth inhibition incubated for 20 hrs by CLSI based broth microdilution method

SMILES	MIC [1] [µg/mL]	MIC [2] [µg/mL]	MIC [3] [µg/mL]	MIC [4] [µg/mL]	MIC [5] [µg/mL]	MIC [6] [µg/mL]	MIC [7] [µg/mL]	MIC [8] [µg/mL]	MIC [9] [µg/mL]	MIC [10] [µg/mL]	MIC [11] [µg/mL]	MIC [12] [µg/mL]	MIC [13] [µg/mL]	MIC [14] [µg/mL]	MIC [15] [µg/mL]	MIC [16] [µg/mL]	MIC [17] [µg/mL]
C[n+]1cc(-c2ccccc2)c(/C=C/c2ccc(O)cc2)cc1-c1ccc(C(C)(C)C)cc1.[I-]	4	4	0.5	64	2	1	4	64	2	> 64	4	8	4	0.125	4	1	4
CCCOc1ccc(/C=C/c2cc(-c3ccccc3)c[n+](C)c2-c2ccccc2)cc1.[I-]	8	8	0.5	32	4	2	4	64	2	8	8	8	4	0.5	4	2	8
CCOc1ccc(/C=C/c2cc(-c3ccccc3)c[n+](C)c2-c2ccccc2)cc1.[I-]	16	32	2	> 64	8	8	16	> 64	4	> 64	32	16	16	2	16	4	16
CC(C)c1ccc(/C=C/c2cc(-c3ccccc3)c[n+](C)c2-c2ccccc2)cc1.[I-]	4	4	0.5	16	2	2	4	32	2	32	4	8	2	0.5	4	1	4
C[n+]1cc(-c2ccccc2)c(/C=C/c2ccc(F)cc2)cc1-c1ccc(C(C)(C)C)cc1.[I-]	2	2	1	8	4	1	2	8	2	8	2	4	1	1	1	1	2
CCCCOc1ccc(/C=C/c2cc(-c3ccccc3)c[n+](C)c2-c2ccccc2)cc1.[I-]	4	2	1	8	2	1	2	8	2	16	4	4	1	0.5	16	1	4
C[n+]1cc(-c2ccccc2)c(/C=C/c2ccc(C(C)(C)C)cc2)cc1-c1ccc2ccccc2c1.[I-]	2	2	0.5	64	4	1	2	4	1	8	2	1	0.5	1	2	0.5	1
C[n+]1cc(-c2ccccc2)cc(/C=C/c2cccc(Br)c2)c1-c1ccccc1.[I-]	16	16	2	64	8	4	8	> 64	4	64	16	16	16	4	16	4	16
CC1(C)S[C@@H]2[C@H](NC(=O)[C@H](NC(=O)N3CCN(S(C)(=O)=O)C3=O)c3ccccc3)C(=O)N2[C@H]1C(=O)O [MEZLOCILLIN]	> 64	16 (≈ 29.7 µM)	32 (≈ 59.3 µM)	1 (≈ 1.85 µM)	< 0.062	16 (≈ 29.7 µM)	> 64	1 (≈ 1.85 µM)	< 0.062	> 64	> 64	64 (≈ 119 µM)	2 (≈ 3.71 µM)	1 (≈ 1.85 µM)	> 64	4 (≈ 7.41 µM)	2 (≈ 3.71 µM)
NC(=O)c1c(F)ccc(OCc2nc3cc(Cl)cnc3s2)c1F	> 64	> 64	1 (≈ 2.81 µM)	> 64	> 64	1 (≈ 2.81 µM)	> 64	> 64	> 64	> 64	> 64	> 64	0.5 (≈ 1.41 µM)	1 (≈ 2.81 µM)	2 (≈ 5.62 µM)	0.5 (≈ 1.41 µM)	> 64
Cc1ccccc1-c1c[n+](C)c(-c2ccc(C(C)(C)C)cc2)cc1/C=C/c1ccc(F)cc1.[I-]	1	1	0.25	8	2	0.5	1	4	2	8	2	2	0.5	1	1	0.5	0.5
COc1cc(/C=C/c2cc(-c3ccccc3)c[n+](C)c2-c2ccccc2)cc(OC)c1OC.[I-]	> 64	> 64	16	> 64	16	64	> 64	> 64	16	> 64	> 64	> 64	64	> 64	> 64	16	> 64
CN(C)c1ccc(/C=C/c2cc(-c3ccccc3)[n+](C)cc2-c2ccccc2)cc1.[I-]	16	16	1	32	8	2	8	64	8	> 64	16	8	8	0.5	8	1	16
C[n+]1cc(-c2ccccc2)c(/C=C/c2ccc(O)cc2)cc1-c1ccccc1.[I-]	64	64	16	> 64	16	32	16	> 64	4	64	64	32	32	2	64	8	64
CCc1ccc(/C=C/c2cc(-c3ccccc3)c[n+](C)c2-c2ccccc2)cc1.[I-]	16	16	2	> 64	8	8	16	> 64	4	16	16	32	8	1	4	4	16
CCCCCOc1ccc(/C=C/c2cc(-c3ccccc3)c[n+](C)c2-c2ccccc2)cc1.[I-]	2	2	1	4	2	1	1	4	2	8	2	2	1	0.25	1	0.5	2
C[n+]1cc(-c2ccccc2)cc(/C=C/c2ccc(C(F)(F)F)cc2)c1-c1ccccc1.[I-]	8	16	2	> 64	2	4	8	> 64	4	> 64	16	16	8	1	16	2	8
